How the values were obtained:
[1] = system: II1β mRNA; assay: Real-time RT-PCR of colonic II1β mRNA; assay type: in vivo, mice
Description: (§1) Total RNA from colonic tissue was extracted using TRIzol® kit (Invitrogen, Carlsbad, Calif., United States of America). Complementary DNA was prepared using M-MLV (Invitrogen). Messenger RNA levels of proinflammatory genes were determined using SYBR® Green PCR Master Mix (Applied Biosystems, Carlsbad, Calif., United States of America) on an ABI 7900HT Fast Real-Time PCR System and normalized to Gapdh. The polymerase chain reactions were performed according to the manufacturer's recommendation. The following gene primers were used: Gapdh_forward: 5′-[…]-3′ (SEQ ID NO: 2), Gapdh_reverse: 5′-[…]-3′ (SEQ ID NO: 3), II-1_forward: 5′-[…]-3′ (SEQ ID NO: 4), II-1_reverse: 5′-[…]-3′ (SEQ ID NO: 5), Cxcl2_forward: 5′-[…]-3′ (SEQ ID NO: 6), Cxcl2_reverse: 5′-[…]-3′ (SEQ ID NO: 7), II-17a_forward: 5′-[…]-3′ (SEQ ID NO: 8), II-17a_reverse: 5′-[…]-3′ (SEQ ID NO: 9), II12p40_forward: […] (SEQ ID NO: 10), II12p40_reverse: […] (SEQ ID NO: 11), Tnf forward: […] (SEQ ID NO: 12), Tnf reverse: […] (SEQ ID NO: 13).
(§2) Total RNA from intestinal tissues was extracted using TRIzol® kit (Invitrogen, Carlsbad, Calif., United States of America) following the manufacture's guide. cDNA was reverse-transcribed using M-MLV (Invitrogen). Proinflammatory 111β, Cxcl2, II17a and Tnfα mRNA expression levels were measured using SYBR® Green PCR Master mix (Applied Biosystems, Carlsbad, Calif., United States of America) on an ABI 7900HT Fast Real-Time PCR System and normalized to Gapdh. The PCR primers used were reported previously. (Sun et al., 2012). The PCR reactions were performed for 40 cycles according to the manufacturer's recommendation, and RNA fold changes were calculated using the ΔΔct method.

[2] = system: Cxcl2 mRNA; assay: Real-time RT-PCR of colonic Cxcl2 mRNA; assay type: in vivo, mice
Description: as §1, §2

[3] = system: II-17a mRNA; assay: Real-time RT-PCR of colonic II-17a mRNA; assay type: in vivo, mice
Description: as §1, §2

[4] = system: Tnfα mRNA; assay: Real-time RT-PCR of colonic Tnfα mRNA; assay type: in vivo, mice; conditions: rapamycin treatment
Description: as §1

[5] = system: C. jejuni; assay type: in vivo, mice; conditions: colon, rapamycin treatment vs infected untreated mice
Source text: All animal protocols were approved by the Institutional Animal Care and Use Committee of the University of North Carolina at Chapel Hill (Chapel Hill, N.C., United States of America). Germ-free 8 to 12 week old II10^−/−; NF-κBEGFP (129/SvEv; C57BL/6 mixed background) mice were transferred from germ-free isolators and immediately gavaged with 10^9 C. jejuni cfu/mouse (strain 81-176 (Korlath et al., 1985)). Mice were then housed under Specific Pathogen-Free (SPF) conditions and sacrificed at 5 or 12 days. Germ-free II10^−/−; NF-κB^EGFP mice were also gavaged with 10^7 Salmonella typhimurium (S. typhimurium strain CA32) cfu/mouse for 2 days or 10^7 Escherichia coli (E. coli strain NC 101) cfu/mouse for 12 days. Conventionally-derived II10^−/−; NF-κB^EGFP mice were put on an antibiotic cocktail (streptomycin 2 g/L, gentamycin 0.5 g/L, bacteriocin 1 g/L and ciprofloxacin 0.125 g/L) in water for 7 days and antibiotics withdrawn 24 hours prior to infection. The mice were then gavaged with 10^9 C. jejuni cfu/mouse for 14 days. To inhibit mTOR signaling, mice were injected daily intraperitoneally (i.p.) with rapamycin (1.5 mg/kg) (Fisher Scientific, Hampton, N.H., United States of America). At the end of the experiment, mice were euthanized using CO2 intoxication. Colon, mesenteric lymph nodes (MLN) and spleen were collected for further processing RNA, protein or C. jejuni culture on Campylobacter selective blood plates (Remel, Thermo Scientific, Hampton, N.H., United States of America) for 48 h at 37° C. using the GasPak system (Becton Dickinson, Franklin Lakes, N.J., United States of America). […] Colons were fixed in 10% buffered formalin (Fisher Scientific, Hampton, N.H., United States of America) overnight, paraffin-embedded, sectioned, and stained with H&E for histological evaluation. Images were acquired using a DP71 camera and DP Controller 3.1.1.276 (Olympus, Center Valley, Pa., United States of America). Intestinal inflammation was scored by evaluating the degree of lamina propria immune cell infiltration, goblet cell depletion, architectural distortion, as well as crypt hyperplasia, ulceration, and abscesses using a score from 0-4. (Lippert et al., 2009). Cecal and colonic inflammation induced by S. typhimurium was evaluated using a score from 0-13 as described. (Hapfelmeier et al., 2005).
MLN and spleen were aseptically resected. Colon tissue was opened, resected and washed three times in sterile PBS. […] C. jejuni colonies were counted and data presented as colony forming unit (cfu)/g tissue.

[6] = system: IL-17; assay: ELISA of IL-17 secreted from cultured colon explants and MLN; assay type: in vivo; conditions: rapamycin-treated infected mice vs control
Description: (§3) Colonic tissue, MLNs, and spleen were weighed, minced with scissors, and incubated in 1 mL 3% fetal bovine serum and 1% antibiotics RPMI medium in a 24-well plate. After 18-hour incubation, medium was collected and centrifuged at 7000 rpm for 5 minutes. Supernatant was collected and stored at −80° C. IL-1β and IL-17 (A) concentrations were assessed by enzyme-linked immunosorbent assay kits (R&D Systems, Minneapolis, Minn., United States of America) following the manufacturer's specification. The IL-17 enzyme-linked immunosorbent assay has no cross-reactivity to IL-17B, C, D, E, and F.

[7] = system: IL-1β; assay: ELISA of IL-1β secreted from cultured colon explants and MLN; assay type: in vivo; conditions: rapamycin-treated infected mice vs control
Description: as §3

[8] = system: Gr-1+/CD45+ cells; assay: Flow cytometry of peripheral blood neutrophils (Gr-1+/CD45+); assay type: in vivo; conditions: rapamycin-treated infected vs untreated infected mice
Description: To assess blood neutrophils, mice were sacrificed and peripheral blood was drawn and mixed with an anticoagulant (20 μL 96 mmol/L EDTA). White blood cells were collected following erythrocyte lysis. The cells were then incubated with antibodies against CD45 (PE conjugated), Gr-1 (fluorescein isothiocyanate conjugated) (eBiosciences, San Diego, Calif., United States of America). To analyze the change of CD4^+ cells after antibody-mediated depletion, freshly isolated splenocytes and MLNs from C jejuni-infected mice were then incubated with PE-conjugated antibodies against CD4 (eBiosciences, San Diego, Calif., United States of America). The cells were analyzed on a Cyan flow cytometer (Beckman Coulter, Inc., Brea, Calif., United States of America) to determine the proportion of total immune cells, neutrophils, or CD4^+ T cells, respectively. The results were then analyzed on Summit software (Beckman Coulter, Inc., Brea, Calif., United States of America).

[9] = system: II-12p40 mRNA; assay: Real-time RT-PCR of colonic II-12p40 mRNA; assay type: in vivo, mice; conditions: rapamycin treatment
Description: as §1

[10] = wortmannin vs vehicle-treated infected mice
[11] = supernatant of cultured colon explants
[12] = colon, rapamycin-treated, C. jejuni-infected mice

SMILES | block of C. jejuni-induced I11β mRNA accumulation [1, 10] [%] | block of C. jejuni-induced Cxcl2 mRNA accumulation [2, 10] [%] | block of C. jejuni-induced II17a mRNA accumulation [3, 10] [%] | C. jejuni-induced colonic Tnfα mRNA accumulation [4] | reduction of C. jejuni colonic invasion (culture count) [5] [%] | attenuation of IL-17 production ([6]; MLN) [%] | reduction of secreted IL-17 [6, 11] [%] | attenuation of C. jejuni induced I1-1β mRNA accumulation [1, 12] [%] | reduction of IL-1β production ([7]; MLN) [%] | reduction of IL-1β production [7, 11] [%] | decrease of ratio of Gr-1+/CD45+ cells in the blood [8] [%] | attenuation of C. jejuni induced Cxcl2 mRNA accumulation [2, 12] [%] | C. jejuni-induced colonic II-12p40 mRNA accumulation [9] | attenuation of C. jejuni induced II-17a mRNA accumulation [3, 12] [%]
COC[C@H]1OC(=O)c2coc3c2[C@@]1(C)C1=C(C3=O)[C@@H]2CCC(=O)[C@@]2(C)C[C@H]1OC(C)=O [wortmannin] | 50 | 77 | 78 |  |  |  |  |  |  |  |  |  |  | 
CO[C@H]1C[C@@H]2CC[C@@H](C)[C@@](O)(O2)C(=O)C(=O)N2CCCC[C@H]2C(=O)O[C@H]([C@H](C)C[C@@H]2CC[C@@H](O)[C@H](OC)C2)CC(=O)[C@H](C)/C=C(\C)[C@@H](O)[C@@H](OC)C(=O)[C@H](C)C[C@H](C)/C=C/C=C/C=C/1C [rapamycin] |  |  |  | not significantly inhibited | 90 | 82 | 94 | 79 | 41 | 59 | 41 | 75 | not significantly inhibited | 92

From patent US20130225629A1, “TARGETING PI3K/MTOR SIGNALLING AND NEUTROPHIL RECRUITMENT FOR TREATMENT OF ENTERITIS” (THE UNIVERSITY OF NORTH CAROLINA AT CHAPEL HILL, priority 2012, published 2013)
